According to the NIST ThermoML archive (doi:10.1016/j.jct.2007.11.001):
“And” between values parts separate entries of the source, which are not always exact repeats. Identical values can stand only once. ± gives the expanded uncertainty stated by the source.

Assay: molar heat capacity at constant pressure
Settings: 101.33 kPa, Crystal 1, Small (less than 1 g) adiabatic calorimetry

O=P([O-])([O-])[O-].[Cs+].[Mg+2] [caesium-magnesium monophosphate]
molar heat capacity at constant pressure (292.8 K): 121 ± 0.58 J/K/mol | molar heat capacity at constant pressure (294.9 K): 121.5 ± 0.58 J/K/mol | molar heat capacity at constant pressure (297 K): 121.9 ± 0.58 J/K/mol | molar heat capacity at constant pressure (298.15 K): 122.1 ± 0.58 J/K/mol | molar heat capacity at constant pressure (298.84 K): 122.3 ± 0.58 J/K/mol | molar heat capacity at constant pressure (300 K): 122.6 ± 0.58 J/K/mol | molar heat capacity at constant pressure (300.7 K): 122.7 ± 0.58 J/K/mol | molar heat capacity at constant pressure (303.3 K): 123.3 ± 0.58 J/K/mol | molar heat capacity at constant pressure (305.9 K): 123.9 ± 0.58 J/K/mol | molar heat capacity at constant pressure (308 K): 124.4 ± 0.58 J/K/mol | molar heat capacity at constant pressure (310 K): 124.8 ± 0.58 J/K/mol | molar heat capacity at constant pressure (310.1 K): 124.8 ± 0.58 J/K/mol | molar heat capacity at constant pressure (312.4 K): 125.4 ± 0.58 J/K/mol | molar heat capacity at constant pressure (314.7 K): 125.9 ± 0.58 J/K/mol | molar heat capacity at constant pressure (316.4 K): 126.2 ± 0.58 J/K/mol | molar heat capacity at constant pressure (318 K): 126.5 ± 0.58 J/K/mol | molar heat capacity at constant pressure (320 K): 127 ± 0.58 J/K/mol | molar heat capacity at constant pressure (321.1 K): 127.2 ± 0.58 J/K/mol | molar heat capacity at constant pressure (324.2 K): 128 ± 0.58 J/K/mol | molar heat capacity at constant pressure (325.3 K): 128.2 ± 0.58 J/K/mol | molar heat capacity at constant pressure (326.4 K): 128.5 ± 0.58 J/K/mol | molar heat capacity at constant pressure (329.66 K): 129.1 ± 0.58 J/K/mol | molar heat capacity at constant pressure (330 K): 129.2 ± 0.58 J/K/mol | molar heat capacity at constant pressure (330.5 K): 128.9 ± 0.58 J/K/mol | molar heat capacity at constant pressure (332.91 K): 129.7 ± 0.58 J/K/mol | molar heat capacity at constant pressure (333.99 K): 129.9 ± 0.58 J/K/mol | molar heat capacity at constant pressure (334.4 K): 129.7 ± 0.58 J/K/mol | molar heat capacity at constant pressure (335.08 K): 130.1 ± 0.58 J/K/mol | molar heat capacity at constant pressure (338.2 K): 130.6 ± 0.58 J/K/mol | molar heat capacity at constant pressure (338.3 K): 130.5 ± 0.58 J/K/mol | molar heat capacity at constant pressure (340 K): 131 ± 0.58 J/K/mol | molar heat capacity at constant pressure (341.8 K): 131.2 ± 0.58 J/K/mol | molar heat capacity at constant pressure (342.2 K): 131.4 ± 0.58 J/K/mol | molar heat capacity at constant pressure (343.4 K): 131.5 ± 0.58 J/K/mol | molar heat capacity at constant pressure (345.83 K): 132 ± 0.58 J/K/mol | molar heat capacity at constant pressure (346.1 K): 132.2 ± 0.58 J/K/mol | molar heat capacity at constant pressure (348.25 K): 132.5 ± 0.58 J/K/mol | molar heat capacity at constant pressure (350 K): 133 ± 0.58 J/K/mol and 132.7 ± 0.58 J/K/mol | molar heat capacity at constant pressure (350.05 K): 132.7 ± 0.58 J/K/mol | molar heat capacity at constant pressure (351.85 K): 133 ± 0.58 J/K/mol | molar heat capacity at constant pressure (353.9 K): 133 ± 0.58 J/K/mol | molar heat capacity at constant pressure (357.8 K): 133.9 ± 0.58 J/K/mol | molar heat capacity at constant pressure (360 K): 135 ± 0.83 J/K/mol | molar heat capacity at constant pressure (361.7 K): 134.7 ± 0.58 J/K/mol | molar heat capacity at constant pressure (365.5 K): 135.5 ± 0.58 J/K/mol | molar heat capacity at constant pressure (369.2 K): 136.4 ± 0.58 J/K/mol | molar heat capacity at constant pressure (370 K): 136 ± 0.83 J/K/mol | molar heat capacity at constant pressure (372.9 K): 136.4 ± 0.58 J/K/mol | molar heat capacity at constant pressure (376.6 K): 137.2 ± 0.58 J/K/mol | molar heat capacity at constant pressure (380 K): 138 ± 0.83 J/K/mol | molar heat capacity at constant pressure (380.2 K): 138 ± 0.58 J/K/mol | molar heat capacity at constant pressure (383.7 K): 138 ± 0.58 J/K/mol | molar heat capacity at constant pressure (387.2 K): 138.9 ± 0.58 J/K/mol | molar heat capacity at constant pressure (390 K): 140 ± 0.83 J/K/mol | molar heat capacity at constant pressure (390.7 K): 139.7 ± 0.58 J/K/mol | molar heat capacity at constant pressure (394.2 K): 140.5 ± 0.58 J/K/mol | molar heat capacity at constant pressure (397.7 K): 140.5 ± 0.58 J/K/mol | molar heat capacity at constant pressure (400 K): 141 ± 0.83 J/K/mol | molar heat capacity at constant pressure (401.3 K): 141.3 ± 0.58 J/K/mol | molar heat capacity at constant pressure (404.8 K): 141.3 ± 0.58 J/K/mol | molar heat capacity at constant pressure (408.5 K): 142.2 ± 0.58 J/K/mol | molar heat capacity at constant pressure (410 K): 142 ± 0.83 J/K/mol | molar heat capacity at constant pressure (412.1 K): 143 ± 0.58 J/K/mol | molar heat capacity at constant pressure (415.8 K): 143 ± 0.58 J/K/mol | molar heat capacity at constant pressure (419.6 K): 143.8 ± 0.58 J/K/mol | molar heat capacity at constant pressure (420 K): 144 ± 0.83 J/K/mol | molar heat capacity at constant pressure (423.3 K): 144.7 ± 0.67 J/K/mol | molar heat capacity at constant pressure (427 K): 145.5 ± 0.67 J/K/mol | molar heat capacity at constant pressure (430 K): 146 ± 0.83 J/K/mol | molar heat capacity at constant pressure (430.6 K): 145.5 ± 0.67 J/K/mol | molar heat capacity at constant pressure (434.3 K): 146.3 ± 0.67 J/K/mol | molar heat capacity at constant pressure (437.9 K): 146.3 ± 0.67 J/K/mol | molar heat capacity at constant pressure (440 K): 147 ± 0.83 J/K/mol | molar heat capacity at constant pressure (441.6 K): 147.2 ± 0.67 J/K/mol | molar heat capacity at constant pressure (445.2 K): 148 ± 0.67 J/K/mol | molar heat capacity at constant pressure (448.8 K): 148 ± 0.67 J/K/mol | molar heat capacity at constant pressure (450 K): 148 ± 0.83 J/K/mol | molar heat capacity at constant pressure (452.5 K): 148.8 ± 0.67 J/K/mol | molar heat capacity at constant pressure (456.1 K): 148.8 ± 0.67 J/K/mol | molar heat capacity at constant pressure (459.8 K): 149.7 ± 0.67 J/K/mol | molar heat capacity at constant pressure (460 K): 150 ± 0.83 J/K/mol | molar heat capacity at constant pressure (463.4 K): 150.5 ± 0.67 J/K/mol | molar heat capacity at constant pressure (467.1 K): 150.5 ± 0.67 J/K/mol | molar heat capacity at constant pressure (470 K): 151 ± 0.83 J/K/mol | molar heat capacity at constant pressure (470.7 K): 151.3 ± 0.67 J/K/mol | molar heat capacity at constant pressure (474.4 K): 151.3 ± 0.67 J/K/mol | molar heat capacity at constant pressure (478.1 K): 152.2 ± 0.67 J/K/mol | molar heat capacity at constant pressure (480 K): 152 ± 0.83 J/K/mol | molar heat capacity at constant pressure (481.8 K): 152.2 ± 0.67 J/K/mol | molar heat capacity at constant pressure (485.4 K): 153 ± 0.67 J/K/mol | molar heat capacity at constant pressure (489.1 K): 153.8 ± 0.67 J/K/mol | molar heat capacity at constant pressure (490 K): 154 ± 0.83 J/K/mol | molar heat capacity at constant pressure (492.7 K): 153.8 ± 0.67 J/K/mol | molar heat capacity at constant pressure (496.4 K): 154.6 ± 0.67 J/K/mol | molar heat capacity at constant pressure (500 K): 154.6 ± 0.67 J/K/mol and 155 ± 0.83 J/K/mol | molar heat capacity at constant pressure (503.7 K): 155.5 ± 0.67 J/K/mol | molar heat capacity at constant pressure (507.3 K): 155.5 ± 0.67 J/K/mol | molar heat capacity at constant pressure (510 K): 156 ± 0.83 J/K/mol | molar heat capacity at constant pressure (511 K): 156.3 ± 0.67 J/K/mol | molar heat capacity at constant pressure (514.6 K): 156.3 ± 0.67 J/K/mol | molar heat capacity at constant pressure (518.3 K): 157.1 ± 0.67 J/K/mol | molar heat capacity at constant pressure (520 K): 157 ± 0.83 J/K/mol | molar heat capacity at constant pressure (521.8 K): 157.1 ± 0.67 J/K/mol | molar heat capacity at constant pressure (525.4 K): 158 ± 0.67 J/K/mol | molar heat capacity at constant pressure (529 K): 158 ± 0.67 J/K/mol | molar heat capacity at constant pressure (530 K): 159 ± 0.83 J/K/mol | molar heat capacity at constant pressure (532.6 K): 158.8 ± 0.67 J/K/mol | molar heat capacity at constant pressure (536.1 K): 158.8 ± 0.67 J/K/mol | molar heat capacity at constant pressure (539.8 K): 159.6 ± 0.67 J/K/mol | molar heat capacity at constant pressure (540 K): 160 ± 0.83 J/K/mol | molar heat capacity at constant pressure (543.3 K): 159.6 ± 0.67 J/K/mol | molar heat capacity at constant pressure (546.9 K): 160.5 ± 0.67 J/K/mol | molar heat capacity at constant pressure (550 K): 160 ± 0.83 J/K/mol | molar heat capacity at constant pressure (550.5 K): 160.5 ± 0.67 J/K/mol | molar heat capacity at constant pressure (554.1 K): 161.3 ± 0.67 J/K/mol | molar heat capacity at constant pressure (557.7 K): 161.3 ± 0.67 J/K/mol | molar heat capacity at constant pressure (560 K): 162 ± 0.83 J/K/mol | molar heat capacity at constant pressure (561.4 K): 162.1 ± 0.67 J/K/mol | molar heat capacity at constant pressure (565 K): 162.1 ± 0.67 J/K/mol | molar heat capacity at constant pressure (568.7 K): 163 ± 0.67 J/K/mol | molar heat capacity at constant pressure (570 K): 163 ± 0.83 J/K/mol | molar heat capacity at constant pressure (572.4 K): 163 ± 0.67 J/K/mol | molar heat capacity at constant pressure (576.1 K): 163.8 ± 0.67 J/K/mol | molar heat capacity at constant pressure (579.8 K): 163.8 ± 0.67 J/K/mol | molar heat capacity at constant pressure (580 K): 164 ± 0.83 J/K/mol | molar heat capacity at constant pressure (583.4 K): 164.6 ± 0.67 J/K/mol | molar heat capacity at constant pressure (587.1 K): 164.6 ± 0.67 J/K/mol | molar heat capacity at constant pressure (590 K): 165 ± 0.83 J/K/mol | molar heat capacity at constant pressure (590.7 K): 165.5 ± 0.67 J/K/mol | molar heat capacity at constant pressure (594.3 K): 165.5 ± 0.67 J/K/mol | molar heat capacity at constant pressure (597.9 K): 166.3 ± 0.67 J/K/mol | molar heat capacity at constant pressure (600 K): 166 ± 0.83 J/K/mol | molar heat capacity at constant pressure (603.4 K): 166.3 ± 0.67 J/K/mol | molar heat capacity at constant pressure (607 K): 167.1 ± 0.67 J/K/mol | molar heat capacity at constant pressure (610 K): 167 ± 0.83 J/K/mol | molar heat capacity at constant pressure (610.6 K): 167.1 ± 0.67 J/K/mol | molar heat capacity at constant pressure (614.2 K): 168 ± 0.67 J/K/mol | molar heat capacity at constant pressure (617.7 K): 168 ± 0.67 J/K/mol | molar heat capacity at constant pressure (620 K): 168 ± 0.83 J/K/mol | molar heat capacity at constant pressure (621.4 K): 168 ± 0.67 J/K/mol | molar heat capacity at constant pressure (625 K): 168.8 ± 0.67 J/K/mol | molar heat capacity at constant pressure (628.6 K): 168.8 ± 0.67 J/K/mol | molar heat capacity at constant pressure (630 K): 169 ± 0.83 J/K/mol | molar heat capacity at constant pressure (632.3 K): 169.6 ± 0.75 J/K/mol | molar heat capacity at constant pressure (636 K): 169.6 ± 0.75 J/K/mol | molar heat capacity at constant pressure (639.7 K): 170.4 ± 0.75 J/K/mol | molar heat capacity at constant pressure (640 K): 170 ± 0.83 J/K/mol | molar heat capacity at constant pressure (643.3 K): 170.4 ± 0.75 J/K/mol | molar heat capacity at constant pressure (648.9 K): 171.3 ± 0.75 J/K/mol | molar heat capacity at constant pressure (650 K): 171 ± 0.83 J/K/mol
